Experimental findings from ChEMBL document CHEMBL3822454, “On the vasoprotective mechanisms underlying novel β-phosphorylated nitrones: Focus on free radical characterization, scavenging and NO-donation in a biological model of oxidative stress” (Eur J Med Chem, 2016) are described below.

By EC50 is commonly meant the concentration needed to bring the measured effect to its halfway point. The term IC10 denotes the concentration at which the effect reaches the 10% level. The term IC50 denotes the midpoint of a concentration-inhibition curve. In general, half-life refers to how long it takes for the measured level to halve.

Series [1] is described as follows: Cytotoxicity against BAECs assessed as decrease in total intracellular LDH content at 15 mM measured after 3 hrs by LDH assay relative to vehicle control. The class given is cell-based, Bos taurus. More on the design: scale not given: the % may be the effect or the level left. Particulars: cattle, baec, 15000 µM.
Series [2] deals with Aorta. The experiment in a line: Potentiation of SNP-induced vasorelaxant activity in Sprague-Dawley rat endothelium-intact aortic rings assessed as reduction in L-phenylephrine hydrochloride-induced contraction at 200 uM relative to SNP. The class given is functional.
The subject of series [3] is Aorta. Put plainly: Vasoprotective activity against oxidative stress-induced impairment of ACh-stimulated vasorelaxation in Sprague-Dawley rat endothelium-intact aortic rings assessed as reduction in L-phenylephrine hydrochloride-induced contraction preincubated for 10 to 20 mins in presence of xanthine-xanthine oxidase system prior to L-phenylephrine hydrochloride addition. The class given is functional.

Series [4] relates to Aorta. Put plainly: Vasoprotective activity against oxidative stress-induced impairment of ACh-stimulated vasorelaxation in Sprague-Dawley rat endothelium-intact aortic rings assessed as reduction in L-phenylephrine hydrochloride-induced contraction preincubated for 10 to 20 mins in presence of xanthine-xanthine oxidase system at 200 uM prior to L-phenylephrine hydrochloride addition relative to ACh. Format: functional.

For series [5], the system named is Aorta. Put plainly: Protection against NADPH-induced superoxide-mediated tissue damage in Sprague-Dawley rat endothelium-intact aortic rings assessed as inhibition of protein carbonyl formation at 200 uM pre-incubated for 30 mins in presence of DTC prior to NADPH addition measured after 60 mins using 7-hydrazino-4-nitrobenzo-2,1,3-oxadiazole by fluorimetric analysis. Format: functional.

For series [6], the system named is Aorta. Put plainly: Protection against NADPH-induced superoxide-mediated tissue damage in Sprague-Dawley rat endothelium-intact aortic rings assessed as decomposition of methyl radical adduct preincubated for 30 mins at 200 uM in presence of DTC prior to NADPH addition after 60 mins followed by renewal of media with NADPH-compound mixture measured after 4 days by EPR spectroscopy relative to control. Format: functional.

The subject of series [7] is Aorta. The experiment in a line: Protection against superoxide-mediated tissue damage in Sprague-Dawley rat endothelium-intact aortic rings assessed as methyl radical adduct formation preincubated for 30 mins at 200 uM in presence of DTC measured after 4 days by EPR spectroscopy. Format: functional.
Series [8] can be described thus: Cytotoxicity against BAEC assessed as decrease in total intracellular LDH content at 15 mM measured after 1 hr by LDH assay relative to vehicle-treated control. Particulars: cattle, 15000 µM. More on the design: scale not given: the % may be the effect or the level left. The class given is cell-based, Bos taurus.
Series [9] relates to Aorta. Put plainly: Toxicity in Sprague-Dawley rat endothelium-intact aortic rings at 15 mM measured after 20 mins. Particulars: 15000 µM.
The subject of series [10] is Aorta. The experiment in a line: Protection against NADPH-induced superoxide-mediated tissue damage in Sprague-Dawley rat endothelium-intact aortic rings assessed as methyl radical adduct formation pre-incubated for 30 mins at 200 uM in presence of DTC prior to NADPH addition measured after 60 mins followed by renewal of media with NADPH-compound mixture measured after 20 mins in presence of DPI by EPR spectroscopy. Format: functional.

The test system of series [11] is A549. The experiment in a line: Cytotoxicity against human A549 cells assessed as reduction in cell viability measured after 24 hrs by MTT assay. Format: cell-based. Particulars: a549, 24 h. In general terms: Tetrazolium dyes change colour on reduction, which living cells bring about.
Series [12] in a line: Antioxidant activity assessed as DPPH scavenging activity measured after 3 mins by spectrophotometric method. Format: physicochemical.
The nature of series [13]: Antioxidant activity assessed as AAPH free radical scavenging activity measured as trolox equivalent by TRAP assay. Format: physicochemical.
Series [14] can be described thus: Antioxidant activity assessed as inhibition of […]-xanthine oxidase system-mediated superoxide formation measured over 7 mins by lucigenin-based chemiluminescence analysis. Format: physicochemical.
In series [15] the target is Xanthine dehydrogenase/oxidase (Homo sapiens, UniProt P47989). The experiment in a line: Inhibition of xanthine oxidase (unknown origin) using xanthine as substrate assessed as inhibition of uric acid formation at 1 to 100 uM after 30 mins by spectrophotometric method. Particulars: 0.5 h.
Xanthine dehydrogenase/oxidase, sequence (P47989 whole entry): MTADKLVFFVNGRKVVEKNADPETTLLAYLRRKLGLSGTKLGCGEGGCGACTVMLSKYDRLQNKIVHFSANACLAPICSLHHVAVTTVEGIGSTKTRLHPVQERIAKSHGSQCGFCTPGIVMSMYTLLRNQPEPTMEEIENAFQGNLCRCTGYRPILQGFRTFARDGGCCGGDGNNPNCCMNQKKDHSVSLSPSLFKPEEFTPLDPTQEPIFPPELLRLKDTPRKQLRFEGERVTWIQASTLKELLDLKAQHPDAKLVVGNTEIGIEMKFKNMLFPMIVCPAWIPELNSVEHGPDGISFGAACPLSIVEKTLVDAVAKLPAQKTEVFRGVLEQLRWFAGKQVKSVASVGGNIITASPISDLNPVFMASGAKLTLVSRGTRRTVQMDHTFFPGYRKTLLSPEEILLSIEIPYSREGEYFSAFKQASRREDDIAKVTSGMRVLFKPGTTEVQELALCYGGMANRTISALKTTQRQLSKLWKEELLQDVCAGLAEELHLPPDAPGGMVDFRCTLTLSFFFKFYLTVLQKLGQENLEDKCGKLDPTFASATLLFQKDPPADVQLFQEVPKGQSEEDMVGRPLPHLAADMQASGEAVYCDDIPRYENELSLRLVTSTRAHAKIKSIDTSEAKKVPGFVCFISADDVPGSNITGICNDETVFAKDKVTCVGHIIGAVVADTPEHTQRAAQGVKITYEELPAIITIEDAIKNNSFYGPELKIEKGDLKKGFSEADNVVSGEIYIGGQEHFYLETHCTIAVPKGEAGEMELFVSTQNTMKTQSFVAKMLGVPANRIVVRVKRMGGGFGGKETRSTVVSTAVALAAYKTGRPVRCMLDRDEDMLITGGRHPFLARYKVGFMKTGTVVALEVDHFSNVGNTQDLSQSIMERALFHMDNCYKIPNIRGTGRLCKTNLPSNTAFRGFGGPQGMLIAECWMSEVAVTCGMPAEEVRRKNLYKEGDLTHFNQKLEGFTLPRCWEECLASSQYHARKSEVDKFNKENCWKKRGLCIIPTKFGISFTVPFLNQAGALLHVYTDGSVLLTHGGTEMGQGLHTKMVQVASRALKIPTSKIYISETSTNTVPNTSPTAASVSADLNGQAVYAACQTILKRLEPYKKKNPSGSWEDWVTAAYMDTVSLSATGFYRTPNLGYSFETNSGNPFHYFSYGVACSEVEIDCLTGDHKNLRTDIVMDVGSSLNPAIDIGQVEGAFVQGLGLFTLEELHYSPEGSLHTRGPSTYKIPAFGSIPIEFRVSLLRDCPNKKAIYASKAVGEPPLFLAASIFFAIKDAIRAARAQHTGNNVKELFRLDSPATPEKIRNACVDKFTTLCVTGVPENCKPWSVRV
Series [16] relates to A549. Put plainly: Cytotoxicity against human A549 cells assessed as reduction in cell viability measured after 48 hrs by FMCA assay. Particulars: A549, 48 h. The class given is cell-based.
The subject of series [17] is A549. Put plainly: Cytotoxicity against human A549 cells assessed as reduction in cell viability measured after 48 hrs by luminescence-based ATP assay. Particulars: A549, 48 h.
The subject of series [18] is A549. The experiment in a line: Cytotoxicity against human A549 cells assessed as reduction in cell viability measured after 48 hrs by MTT assay. Format: cell-based. Particulars: A549, 48 h.
A short description of series [19]: Cytotoxicity against BAEC assessed as reduction in cell viability measured after 24 hrs by MTT assay. More on the design: species or system Bos taurus. Particulars: cattle.
A short description of series [20]: Induction of nitric oxide release in water using Fe2+-MGD2 as nitric oxide trap at pH 6.56 incubated in ambient light for 4.5 hrs by EPR spectroscopy. Format: physicochemical. Particulars: buffer, pH 6.56, 4.5 h.
The nature of series [21]: Induction of nitric oxide release in water using Fe2+-MGD2 as nitric oxide trap at pH 6.56 measured 70 mins post UV-photolysis in dark condition by EPR spectroscopy. Particulars: buffer, pH 6.56, 70 min. The class given is physicochemical.
Series [22] in a line: Half life of the compound in phosphate buffer at pH 6 by UV-illumination. Format: ADME.
Series [23] in a line: Cytotoxicity against BAECs assessed as reduction in cell viability measured after 24 hrs by neutral red assay. Particulars: Bos taurus, BAEC.

SMILES strings stand for the structures. Activity calls are given as the source filed them. The rule behind the calls is not given here.

For `CCOP(=O)(OCC)C(C)(C)/[N+]([O-])=C/c1cc(OC)c(O)c(OC)c1`, the Activity was 8% in [1]; less than 5% with Aorta [6]; less than 10% in series [8]; “Non-toxic” in the series on Aorta [9]; 1.44 equiv in series [13]. For the same compound, the figures for the Rmax with Aorta [2] and with Aorta [4] were 101% and 77%, respectively. Further, the EC50 in the series with Aorta [3] is 67.6 nM; in series [12], 190 µM. In addition, in the series with Aorta [5], the inhibition entry was “Active”. Moreover, the result with Aorta [7] and in the series on Aorta [10] was inactive. For the same compound, the IC10 in the series on A549 [11] is 6.1 mM; in [19], 2.6 mM. Further, the 50% inhibitory concentration (IC50) in [14] is 72.1 µM; with A549 [16], 12 mM; in the series on A549 [17] it was 14.8 mM; in the series on A549 [18], 15.3 mM. Also, the “inhibition (INH)” value in series [15] is listed as “Not Active”.

As for `CCOP(=O)(OCC)C(C)(C)/[N+]([O-])=C/c1ccc(Cl)cc1`, the outcome in series [20] and in series [21] was Active.

As to `CCOP(=O)(OCC)C(C)(C)/[N+]([O-])=C/c1ccccc1`, the Activity in [1] is 19%; in the series with Aorta [6] it was 30%; in series [13], 0.02 equiv. The Rmax in the series on Aorta [2] is listed as 100%; in the series on Aorta [4], 75%. The EC50 in the series with Aorta [3] was 148 nM; in [12], greater than 1000 µM. Further, the inhibition result in the series with Aorta [5] is “Active”. In addition, the IC10 was 4.9 mM with A549 [11] and 1.1 mM in series [19]. In addition, the IC50 in series [14] is 375 µM; in the series with A549 [16] it was 12.6 mM; in the series with A549 [17], 10.8 mM; in the series on A549 [18] it was 12.4 mM.

For `CC(C)(C)N([O])C(O)c1ccccc1` (configuration not stated), the half-life in [22] is 1.5 min.

On to `CC(C)(C)/[N+]([O-])=C/c1ccccc1`, for which the Activity is 10% in [1], 25% in the series on Aorta [6], “Not Active” in [21] and 0.02 equiv in [13]. For the same compound, the Rmax stood at 98% in the series on Aorta [2] and 62% in the series with Aorta [4]. The values for the EC50 (in the series on Aorta [3]; in series [12]) were 174 nM and greater than 1000 µM, respectively. The IC50 in series [23] is 9.4 mM; in series [14], greater than 4000 µM; with A549 [16], 11.4 mM; in the series with A549 [17], 9.6 mM; with A549 [18], 10.8 mM. Besides, in the series on Aorta [5], the inhibition result was “inactive”. Further, the figures for the IC10 (with A549 [11]; in series [19]) were 5.1 mM and 2.4 mM, respectively.
